The source of these data is the Biogen ADME set (Fang et al. 2023).

The conditions of the series: for aqueous solubility: pH 6.8.

≈ marks a conversion by molar mass, not a printed value.

By aqueous solubility is commonly meant how much of the substance goes into solution per volume. High values mean a readily soluble substance, low ones a poorly soluble substance. As for `OC1CCN(c2ncc(-c3cnccn3)c(-c3cccs3)n2)CC1`, the MDR1-MDCK efflux ratio was 1.14; the intrinsic clearance, human liver microsomes amounted to 7.01 mL/min/kg; the intrinsic clearance, rat liver microsomes was at most 10.7 mL/min/kg; the aqueous solubility is 47.9 µg/mL (≈ 141 µM).

For the compound `COC[C@@H](O)Cn1c(C)nc2ccccc21`, the MDR1-MDCK efflux ratio is 1.43; the intrinsic clearance, human liver microsomes was at most 4.74 mL/min/kg; the intrinsic clearance, rat liver microsomes is at most 10.7 mL/min/kg.

As to `CCn1nccc1-c1n[nH]c(=O)n1Cc1ccccc1`, the aqueous solubility was found to be 27 µg/mL (≈ 100 µM).

In the case of `CN(C)C(=O)C1(Cc2ccccc2-c2ccccc2)CCN(C(=O)C2CCCO2)CC1` (stereo unspecified), the MDR1-MDCK efflux ratio came out at 17.3; the fraction unbound, human plasma is 0.0799; the fraction unbound, rat plasma amounted to 0.184; the intrinsic clearance, human liver microsomes worked out at 395 mL/min/kg. In addition, the intrinsic clearance, rat liver microsomes was found to be 2390 mL/min/kg and the aqueous solubility came to 84.1 µg/mL (≈ 200 µM).

Turning to `Cn1c(=O)n(Cc2cccnc2)c(=O)c2ccc(C(F)(F)F)nc21`, the MDR1-MDCK efflux ratio came out at 0.645; the intrinsic clearance, human liver microsomes was at most 4.74 mL/min/kg; the intrinsic clearance, rat liver microsomes amounted to 83.7 mL/min/kg.

With `COc1cccc(S(=O)(=O)N2CCOC(c3c(C(N)=O)sc4ncccc34)C2)c1` (stereo unspecified), the MDR1-MDCK efflux ratio is 38.2.

`OCCCCCn1cc(-c2ccccc2-c2ccco2)nn1`: the MDR1-MDCK efflux ratio is 1.08; the intrinsic clearance, human liver microsomes turned out to be 34 mL/min/kg; the intrinsic clearance, rat liver microsomes was 235 mL/min/kg; the aqueous solubility amounted to 11.1 µg/mL (≈ 37.3 µM).

As to `CCCCOc1nc(N)c2c(n1)N(Cc1cccc(CN3CCCC3)c1)CC(=O)N2`, the MDR1-MDCK efflux ratio came out at 5.49; the intrinsic clearance, human liver microsomes was 113 mL/min/kg; the intrinsic clearance, rat liver microsomes is 1870 mL/min/kg.

In the case of `Cc1cc(C)c(-c2csc(CC(N)=O)n2)cc1C`, the MDR1-MDCK efflux ratio worked out at 0.831.

Consider `COc1ccc(Cl)cc1-c1cccc(C(=O)NCCN2CCCC2=O)c1`, for which the MDR1-MDCK efflux ratio was 6.01; the intrinsic clearance, human liver microsomes came out at 106 mL/min/kg; the intrinsic clearance, rat liver microsomes was found to be 875 mL/min/kg.

For the compound `O=C1NC2(CCCC2)C(=O)N1Cc1ccccc1F`, the aqueous solubility was 44.5 µg/mL (≈ 170 µM).

Take `CN(C)C1CN(c2nc(-c3cnccn3)nc3sc4c(c23)CCCC4)C1`: the MDR1-MDCK efflux ratio was 1.17; the intrinsic clearance, human liver microsomes is 92.5 mL/min/kg; the intrinsic clearance, rat liver microsomes turned out to be 2720 mL/min/kg; the aqueous solubility was 37 µg/mL (≈ 101 µM).

The compound `Cc1cccc2c(=O)n(CCC(=O)Nc3cc(C4CC4)n[nH]3)cnc12` displayed an aqueous solubility of 8.26 µg/mL (≈ 24.5 µM).

Regarding `CCC1(O)CN(c2ncnc3c2c(Br)nn3C)C1`, the MDR1-MDCK efflux ratio is 0.85; the intrinsic clearance, human liver microsomes was at most 4.74 mL/min/kg; the intrinsic clearance, rat liver microsomes was determined as 35.2 mL/min/kg; the aqueous solubility worked out at 49.1 µg/mL (≈ 157 µM).

With `Cc1nccc(C2(C)CCN(CC(N)=O)CC2)n1`, the MDR1-MDCK efflux ratio was determined as 2.82; the intrinsic clearance, human liver microsomes was at most 4.74 mL/min/kg; the intrinsic clearance, rat liver microsomes was at most 10.7 mL/min/kg; the aqueous solubility stood at 59.8 µg/mL (≈ 241 µM).

As to `CC(C)Cc1cc(CN2CCN(S(=O)(=O)N3CCOCC3)CC2)n[nH]1`, the MDR1-MDCK efflux ratio came out at 23.3; the intrinsic clearance, human liver microsomes was 21.5 mL/min/kg; the intrinsic clearance, rat liver microsomes was 284 mL/min/kg.

With `CN(CCSc1ccc2nnc(C(F)F)n2n1)Cc1ccccc1`, the MDR1-MDCK efflux ratio worked out at 0.653; the intrinsic clearance, human liver microsomes turned out to be 246 mL/min/kg; the intrinsic clearance, rat liver microsomes was determined as 3180 mL/min/kg.

`Cc1ccn(-c2ccc3[nH]c4c(c3c2)CCCC4=O)n1` showed an intrinsic clearance, human liver microsomes of 137 mL/min/kg; an intrinsic clearance, rat liver microsomes of 512 mL/min/kg; an aqueous solubility of 9.65 µg/mL (≈ 36.4 µM).

Turning to `COCC(=O)Nc1nc(C)c(C)s1`, the MDR1-MDCK efflux ratio was 0.659; the intrinsic clearance, human liver microsomes was 18.9 mL/min/kg; the intrinsic clearance, rat liver microsomes turned out to be 71.3 mL/min/kg; the aqueous solubility came out at 25.6 µg/mL (≈ 128 µM).

`CNc1nc(C)nc(N[C@H]2CCC[C@@H](C(=O)NCc3ccc(C#N)cc3C(F)(F)F)C2)n1`: the MDR1-MDCK efflux ratio came out at 108; the intrinsic clearance, human liver microsomes was found to be 18.4 mL/min/kg; the intrinsic clearance, rat liver microsomes worked out at 91.3 mL/min/kg.

`Cn1ncnc1COc1nn2c(-c3c(F)cccc3F)nnc2cc1C1CCC1`: the MDR1-MDCK efflux ratio came out at 73.4; the intrinsic clearance, human liver microsomes was at most 4.74 mL/min/kg; the intrinsic clearance, rat liver microsomes came to 40.8 mL/min/kg; the aqueous solubility was 41.4 µg/mL (≈ 104 µM).

Take `O=C1NC2(CCCCC2)C(=O)N1Cc1csc(-c2ccccc2)n1`: the MDR1-MDCK efflux ratio came to 1.15; the intrinsic clearance, human liver microsomes was 23.7 mL/min/kg; the intrinsic clearance, rat liver microsomes was 862 mL/min/kg.

`Cc1ccc(S(=O)(=O)N2CCCc3ccc(NS(=O)(=O)c4ccc(F)cc4C)cc32)cc1` yielded an intrinsic clearance, human liver microsomes of 186 mL/min/kg and an intrinsic clearance, rat liver microsomes of 2420 mL/min/kg.

Turning to `CC(C)C(=O)Nc1ncc(-c2ccccc2)s1`, the MDR1-MDCK efflux ratio turned out to be 0.393 and the aqueous solubility came out at 0.55 µg/mL (≈ 2.23 µM).

`Cc1cccc(/C=N/Nc2cc(N3CCOCC3)n3nc(-c4ccncc4)cc3n2)c1` showed an intrinsic clearance, human liver microsomes of 32.1 mL/min/kg.

For `OC1CCN(c2nccc(-c3cccs3)n2)CC1`, the MDR1-MDCK efflux ratio is 0.493; the intrinsic clearance, human liver microsomes worked out at 52.6 mL/min/kg; the intrinsic clearance, rat liver microsomes was 656 mL/min/kg.

For `COCCCNc1ncc(-c2cc(C)no2)c(C(C)C)n1`, the MDR1-MDCK efflux ratio worked out at 0.439; the intrinsic clearance, human liver microsomes amounted to 33.4 mL/min/kg; the intrinsic clearance, rat liver microsomes came out at 5960 mL/min/kg.

For `O=C(CSc1nccn1C1CC1)Nc1c(Cl)cc(Cl)cc1C(=O)O`, the MDR1-MDCK efflux ratio is 8.29; the intrinsic clearance, human liver microsomes amounted to 41.6 mL/min/kg; the intrinsic clearance, rat liver microsomes stood at 204 mL/min/kg; the aqueous solubility amounted to 2.43 µg/mL (≈ 6.29 µM).

In the case of `Fc1ccccc1-c1c[nH]nc1C1CCCN1Cc1ccc2ncccc2c1` (stereo unspecified), the MDR1-MDCK efflux ratio turned out to be 2.26; the fraction unbound, human plasma worked out at 0.0351; the fraction unbound, rat plasma amounted to 0.0289; the intrinsic clearance, human liver microsomes was found to be 400 mL/min/kg. The intrinsic clearance, rat liver microsomes was determined as 1630 mL/min/kg and the aqueous solubility worked out at 29.2 µg/mL (≈ 78.4 µM).

Turning to `Nc1ccc(Cl)c(NC2=NN(c3c(Cl)cc(Cl)cc3Cl)C(=O)C2)c1`, the intrinsic clearance, human liver microsomes is 92.5 mL/min/kg; the intrinsic clearance, rat liver microsomes stood at 702 mL/min/kg; the aqueous solubility was 14.1 µg/mL (≈ 34.8 µM).

Consider `CN(C)CCSc1nnnn1-c1ccc(Br)cc1`, for which the MDR1-MDCK efflux ratio turned out to be 0.435; the intrinsic clearance, human liver microsomes is 28.6 mL/min/kg; the intrinsic clearance, rat liver microsomes is 1740 mL/min/kg.

As for `CCNC(=O)c1ccc(CS(C)(=O)=O)cc1`, the MDR1-MDCK efflux ratio came to 2.62; the intrinsic clearance, human liver microsomes is at most 4.74 mL/min/kg; the intrinsic clearance, rat liver microsomes is 20.6 mL/min/kg; the aqueous solubility turned out to be 40.9 µg/mL (≈ 169 µM).

As for `CC(C)(C)c1nccc(NCc2ccncc2)n1`, the MDR1-MDCK efflux ratio worked out at 0.7; the intrinsic clearance, human liver microsomes is 14.1 mL/min/kg; the intrinsic clearance, rat liver microsomes came out at 748 mL/min/kg; the aqueous solubility is 30.4 µg/mL (≈ 125 µM).

`COc1cc(C)cc(OC)c1-c1ccc(OCC(N)=O)cc1` had an intrinsic clearance, human liver microsomes of at most 4.74 mL/min/kg and an intrinsic clearance, rat liver microsomes of 253 mL/min/kg.

Consider `O=C(c1cc(-c2ccc(F)cc2)on1)N1CC[C@H](Oc2ccccc2F)[C@@H](O)CC1`, for which the MDR1-MDCK efflux ratio was 0.861; the intrinsic clearance, human liver microsomes came out at 48.5 mL/min/kg; the intrinsic clearance, rat liver microsomes was determined as 600 mL/min/kg.

In the case of `c1ccc(Oc2cccc(CN(CCN3CCOCC3)Cc3cccnc3)c2)cc1`, the MDR1-MDCK efflux ratio was 1.33; the fraction unbound, human plasma turned out to be 0.00599; the fraction unbound, rat plasma was 0.0139; the intrinsic clearance, human liver microsomes turned out to be 1250 mL/min/kg. The same compound came in with an intrinsic clearance, rat liver microsomes of 3870 mL/min/kg and an aqueous solubility of 66.7 µg/mL (≈ 165 µM).

For the compound `CC(=O)N(c1ccc(C)cc1)c1nc(Cn2ccnc2)cs1`, the MDR1-MDCK efflux ratio came to 2.87; the intrinsic clearance, human liver microsomes stood at 31.9 mL/min/kg; the intrinsic clearance, rat liver microsomes is 210 mL/min/kg; the aqueous solubility came to 43.6 µg/mL (≈ 140 µM).

Turning to `O=c1c(=O)n(-c2ccc(F)c(F)c2)ccn1Cc1ccccc1Cl`, the MDR1-MDCK efflux ratio was found to be 0.696 and the aqueous solubility stood at 0.37 µg/mL (≈ 1.06 µM).

Compound `CN1CCN(C(=O)C2(NC(=O)c3cc(Cl)c4c(c3)OCO4)CCCC2)CC1` yielded an intrinsic clearance, human liver microsomes of at most 4.74 mL/min/kg; an intrinsic clearance, rat liver microsomes of 37.7 mL/min/kg; an aqueous solubility of 79 µg/mL (≈ 201 µM).

For the compound `CCCC(=O)Nc1ccc(C)c2ncccc12`, the MDR1-MDCK efflux ratio amounted to 0.743; the intrinsic clearance, human liver microsomes stood at 8.73 mL/min/kg; the intrinsic clearance, rat liver microsomes was 28.1 mL/min/kg; the aqueous solubility was 50.2 µg/mL (≈ 220 µM).

As for `c1cc(CNc2ncc(-c3cnccn3)c(C3CC3)n2)ccn1`, the MDR1-MDCK efflux ratio came to 1.35; the intrinsic clearance, human liver microsomes was 25 mL/min/kg; the intrinsic clearance, rat liver microsomes was found to be 1310 mL/min/kg.

In turn, `CCS(=O)(=O)CC(=O)Nc1cc(C)ccc1C` yielded an intrinsic clearance, human liver microsomes of at most 4.74 mL/min/kg; an intrinsic clearance, rat liver microsomes of at most 10.7 mL/min/kg; an aqueous solubility of 40.4 µg/mL (≈ 158 µM).

As to `Cc1c(C)n(Cc2ccccc2)c2ncnc(N)c12`, the MDR1-MDCK efflux ratio turned out to be 0.607; the intrinsic clearance, human liver microsomes was determined as 16 mL/min/kg; the intrinsic clearance, rat liver microsomes amounted to 516 mL/min/kg; the aqueous solubility came to 43.1 µg/mL (≈ 171 µM).

For the compound `NC1CC(NC(=O)c2ccc(-c3cn[nH]c3)cn2)C12CCC2` (stereo unspecified), the MDR1-MDCK efflux ratio is 8.96; the fraction unbound, human plasma was 0.513; the intrinsic clearance, human liver microsomes came to 8.51 mL/min/kg.

With `Cn1cnnc1-c1cccc(NS(=O)(=O)c2ccc(N3CCCC3=O)cc2)c1`, the MDR1-MDCK efflux ratio turned out to be 3.7; the intrinsic clearance, human liver microsomes was at most 4.74 mL/min/kg; the intrinsic clearance, rat liver microsomes worked out at 18 mL/min/kg; the aqueous solubility was 56.6 µg/mL (≈ 142 µM).

For the compound `CCCc1cc(-c2nn3c(C4CCCC4)nnc3s2)n(C)n1`, the intrinsic clearance, human liver microsomes came to 99.4 mL/min/kg; the intrinsic clearance, rat liver microsomes came to 2230 mL/min/kg; the aqueous solubility came to 13.5 µg/mL (≈ 42.5 µM).

As for `O=C(Nc1cc(Cl)ccc1Cl)c1cccc(N2CCCC2=O)c1`, the intrinsic clearance, human liver microsomes worked out at 156 mL/min/kg; the intrinsic clearance, rat liver microsomes stood at 969 mL/min/kg; the aqueous solubility is 34.8 µg/mL (≈ 99.7 µM).

As to `CCn1nc(CNC(=O)C2CCOCC2)c2ccccc21`, the MDR1-MDCK efflux ratio is 2.83; the intrinsic clearance, human liver microsomes was at most 4.74 mL/min/kg; the intrinsic clearance, rat liver microsomes came to 112 mL/min/kg.
